# pEC50: −log10 of the molar value.
# Molecular target: T1, recombinant IL4I1 (Homo sapiens, UniProt Q96RQ9)
# T1 construct: purchased R&D Systems 5684-AO-020
# T1 sequence (Q96RQ9 22-567): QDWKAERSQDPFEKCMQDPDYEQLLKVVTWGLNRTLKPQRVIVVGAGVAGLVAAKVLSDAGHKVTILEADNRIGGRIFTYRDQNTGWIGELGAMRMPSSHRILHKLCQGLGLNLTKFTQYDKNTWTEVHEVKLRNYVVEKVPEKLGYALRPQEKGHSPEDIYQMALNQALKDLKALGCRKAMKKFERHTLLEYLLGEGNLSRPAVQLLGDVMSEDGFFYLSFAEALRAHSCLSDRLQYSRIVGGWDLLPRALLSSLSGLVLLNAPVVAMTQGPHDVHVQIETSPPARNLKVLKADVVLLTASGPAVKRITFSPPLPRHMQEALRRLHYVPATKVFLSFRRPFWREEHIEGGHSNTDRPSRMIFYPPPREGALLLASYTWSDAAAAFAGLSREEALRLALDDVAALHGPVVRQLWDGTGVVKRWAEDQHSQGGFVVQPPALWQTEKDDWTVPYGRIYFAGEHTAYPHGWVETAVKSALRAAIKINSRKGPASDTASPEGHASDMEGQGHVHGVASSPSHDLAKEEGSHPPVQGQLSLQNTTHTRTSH
# Assay: IL4I1 Enzymatic Assay (Amplex Red/HRP coupled detection of H2O2, fluorescence)
# Type: biochemical
# Conditions: 1 nM recombinant IL4I1; four-hour pre-incubation with compound; 1 mM each Phe, Tyr, Trp; ten-point titration
# Experimental: Interleukin 4 inducible protein 1 (IL4I1) is an L-amino oxidase that catalyzes the oxidation of aromatic residues (Phe, Trp and Tyr): L-amino acid+H2O+O2→2-oxo acid+NH3+H2O2. Equal molar of H2O2 and the corresponding alpha-ketoacid are produced when IL4I1 and substrate are added. In this assay, the hydrogen peroxide generated by IL4I1 is then detected through a coupled reaction with Amplex Red (10-acetyl-3,7-dihydroxyphenoxazine) and […] (HRP) to produce Resorufin product that could be detected in the form of fluorescence signals. The assessment of the inhibitory effect of small molecules (EC50) on IL4I1 is measured by the effectiveness of the compounds to inhibit the production of H202.
# Using this assay, the potency (EC50) of each compound was determined from a ten-point (1:3 serial dilution) titration curve using the following outlined procedure. To each well of a black flat-bottom Greiner (Cat #781076) 384 well-plate, 125 nL of compound (0.5% DMSO in final assay volume of 25 μL) was dispensed, followed by the addition of 12.5 μL of 1× assay buffer (50 mM Hepes 7.0 and 0.005% Tween20 (Sigma, Cat #P8341; low peroxide grade)) containing 2 nM of recombinant IL4I1 (R&D Systems, Cat #5684-AO-020). Plates were placed in an ambient temperature humidified chamber for a four-hour pre-incubation with compound. Subsequently, each reaction was initiated by the addition of 12.5 μL 1× assay buffer containing 2 mM of each aromatic amino acids (Phe/Tyr/Trp), 0.1 mM Amplex Red and 2 U/mL of HRP. The final reaction in each well of 25 μL consists of 1 nM of IL4I1, 1 mM of each residue (Phe, Tyr and Trp), 0.05 mM Amplex Red and 1 U/mL of HRP. It should be noted that the concentrations of Amplex Red and HRP used here are in excess such that the conversion of H2O2 to Resorufin product occurs instantaneously and non-rate limiting. Reactions were allowed to proceed for 120 minutes followed by fluorescence readout on a Spectramax with the following set parameters: 544 nm excitation/590 nm emission, 570 nm cutoff (EnVision is an alternative reader). Dose-response curves were generated by plotting percent effect (% inhibition; Y-axis) vs. Log10 compound concentrations (X-axis). EC50 values were calculated using a non-linear regression, four-parameters sigmoidal dose-response model and are shown in Table 16.
row,SMILES,pEC50
1,"Cc1c(C(=O)NCc2nnc(-c3ccccc3)s2)oc2cccc(O)c12 [Example 20, 4-hydroxy-3-methyl-N-[(5-phenyl-1,3,4-thiadiazol-2-yl)methyl]benzofuran-2-carboxamide]",6.47
2,"CC(C)Cc1cc(C(=O)NCc2nnc(-c3ccccc3)s2)[nH]n1 [Example 21, 3-isobutyl-N-((5-phenyl-1,3,4-thiadiazol-2-yl)methyl)-1H-pyrazole-5-carboxamide]",6.68
3,"O=C(NCc1nnc(-c2ccccc2)s1)c1scc2c1OCCO2 [Example 22, N-[(5-phenyl-1,3,4-thiadiazol-2-yl)methyl]-2,3-dihydrothieno[3,4-b][1,4]dioxine-5-carboxamide]",7.57
4,"Cc1cc(C(=O)NCc2nnc(-c3ccccc3)s2)no1 [Example 23, 5-methyl-N-[(5-phenyl-1,3,4-thiadiazol-2-yl)methyl]isoxazole-3-carboxamide]",6.68
5,"Cc1onc(C(=O)NCc2nnc(-c3ccccc3)s2)c1C [Example 24, 4,5-dimethyl-N-[(5-phenyl-1,3,4-thiadiazol-2-yl)methyl]isoxazole-3-carboxamide]",7.03
6,"Cc1cc(C(=O)NCc2nnc(-c3ccccc3)s2)on1 [Example 25, 3-methyl-N-[(5-phenyl-1,3,4-thiadiazol-2-yl)methyl]isoxazole-5-carboxamide]",7.12
7,"CC(C)c1cc(C(=O)NCc2nnc(-c3ccccc3)s2)no1 [Example 26, 5-isopropyl-N-[(5-phenyl-1,3,4-thiadiazol-2-yl)methyl]isoxazole-3-carboxamide]",7.37
8,"Cc1n[nH]c(C(=O)NCc2nnc(-c3ccccc3)s2)n1 [Example 27, 3-methyl-N-((5-phenyl-1,3,4-thiadiazol-2-yl)methyl)-1H-1,2,4-triazole-5-carboxamide]",6.53
9,"O=C(NCc1nnc(-c2ccccc2)s1)c1cc(C(F)(F)F)n[nH]1 [Example 28, N-[(5-phenyl-1,3,4-thiadiazol-2-yl)methyl]-3-(trifluoromethyl)-1H-pyrazole-5-carboxamide]",6.15
10,"COc1ccsc1C(=O)NCc1nnc(-c2ccccc2)s1 [Example 29, 3-methoxy-N-[(5-phenyl-1,3,4-thiadiazol-2-yl)methyl]thiophene-2-carboxamide]",8.00
11,"O=C(NCc1nnc(-c2ccccc2)s1)c1cn([C@@H]2CO[C@H]3[C@@H]2OC[C@H]3O)nn1 [Example 30, 1-((3R,3aR,6R,6aR)-6-hydroxyhexahydrofuro[3,2-b]furan-3-yl)-N-((5-phenyl-1,3,4-thiadiazol-2-yl)methyl)-1H-1,2,3-triazole-4-carboxamide]",6.89
12,"O=C(NCc1nnc(-c2ccccc2)s1)c1n[nH]c(C2CC2)c1F [Example 31, 5-cyclopropyl-4-fluoro-N-[(5-phenyl-1,3,4-thiadiazol-2-yl)methyl]-1H-pyrazole-3-carboxamide]",7.38
13,"Cn1cnc(C(=O)NCc2nnc(-c3ccccc3)s2)c1 [Example 32, 1-methyl-N-((5-phenyl-1,3,4-thiadiazol-2-yl)methyl)-1H-imidazole-4-carboxamide]",7.11
14,"O=C(NCc1nnc(-c2ccccc2)s1)c1cc(C2CC2)n[nH]1 [Example 33, 3-cyclopropyl-N-[(5-phenyl-1,3,4-thiadiazol-2-yl)methyl]-1H-pyrazole-5-carboxamide]",6.77
15,"O=C(NCc1nnc(-c2ccccc2)s1)c1cc2n(n1)CCSC2 [Example 34, N-[(5-phenyl-1,3,4-thiadiazol-2-yl)methyl]-6,7-dihydro-4H-pyrazolo[5,1-c][1,4]thiazine-2-carboxamide]",6.34
16,"O=C(NCc1nnc(-c2ccccc2)s1)c1cc(C2CC2)on1 [Example 35, 5-cyclopropyl-N-[(5-phenyl-1,3,4-thiadiazol-2-yl)methyl]isoxazole-3-carboxamide]",8.10
17,"Cc1cc(C(=O)NCc2nnc(-c3ccccc3)s2)c(C)o1 [Example 36, 2,5-dimethyl-N-[(5-phenyl-1,3,4-thiadiazol-2-yl)methyl]furan-3-carboxamide]",6.31
18,"Cc1csc(C(=O)NCc2nnc(-c3ccccc3)s2)c1Cl [Example 37, 3-chloro-4-methyl-N-[(5-phenyl-1,3,4-thiadiazol-2-yl)methyl]thiophene-2-carboxamide]",7.92
19,"Cc1cc(C(=O)NCc2nnc(-c3ccccc3)s2)oc1C [Example 38, 4,5-dimethyl-N-[(5-phenyl-1,3,4-thiadiazol-2-yl)methyl]furan-2-carboxamide]",6.05
20,"CCCc1cc(C(=O)NCc2nnc(-c3ccccc3)s2)no1 [Example 39, N-[(5-phenyl-1,3,4-thiadiazol-2-yl)methyl]-5-propyl-isoxazole-3-carboxamide]",8.52
21,"Cc1oc(C)c(C(=O)NCc2nnc(-c3ccccc3)s2)c1C [Example 40, 2,4,5-trimethyl-N-[(5-phenyl-1,3,4-thiadiazol-2-yl)methyl]furan-3-carboxamide]",6.58
22,"COc1c(C(=O)NCc2nnc(-c3ccccc3)s2)csc1Cl [Example 41, 5-chloro-4-methoxy-N-[(5-phenyl-1,3,4-thiadiazol-2-yl)methyl]thiophene-3-carboxamide]",7.23

# Results, then the molecule that gave them:
row,pEC50,SMILES
1,6.34,"Cc1n[nH]c(C(=O)NCc2nnc(-c3ccccc3)s2)c1C [Example 42, 3,4-dimethyl-N-((5-phenyl-1,3,4-thiadiazol-2-yl)methyl)-1H-pyrazole-5-carboxamide]"
2,6.75,"CCn1cc(C(=O)NCc2nnc(-c3ccccc3)s2)cn1 [Example 43, 1-ethyl-N-[(5-phenyl-1,3,4-thiadiazol-2-yl)methyl]pyrazole-4-carboxamide]"
3,6.11,"O=C(NCc1nnc(-c2ccccc2)s1)c1c[nH]nc1C(F)(F)F [Example 44, N-[(5-phenyl-1,3,4-thiadiazol-2-yl)methyl]-3-(trifluoromethyl)-1H-pyrazole-4-carboxamide]"
4,6.26,"COCc1ccc(C(=O)NCc2nnc(-c3ccccc3)s2)o1 [Example 45, 5-(methoxymethyl)-N-[(5-phenyl-1,3,4-thiadiazol-2-yl)methyl]furan-2-carboxamide]"
5,7.04,"Cc1[nH]nc(C(=O)NCc2nnc(-c3ccccc3)s2)c1F [Example 46, 4-fluoro-5-methyl-N-[(5-phenyl-1,3,4-thiadiazol-2-yl)methyl]-1H-pyrazole-3-carboxamide]"
6,6.81,"CCc1[nH]nc(C(=O)NCc2nnc(-c3ccccc3)s2)c1C [Example 47, 5-ethyl-4-methyl-N-((5-phenyl-1,3,4-thiadiazol-2-yl)methyl)-1H-pyrazole-3-carboxamide]"
7,6.63,"O=C(NCc1nnc(-c2ccccc2)s1)c1cc2n(n1)CCC2 [Example 48, N-[(5-phenyl-1,3,4-thiadiazol-2-yl)methyl]-5,6-dihydro-4H-pyrrolo[1,2-b]pyrazole-2-carboxamide]"
8,7.66,"CC(C)c1cc(C(=O)NCc2nnc(-c3ccccc3)s2)on1 [Example 49, 3-isopropyl-N-[(5-phenyl-1,3,4-thiadiazol-2-yl)methyl]isoxazole-5-carboxamide]"
9,6.27,"Cc1cc(C(=O)NCc2nnc(-c3ccccc3)s2)c(C)n1C [Example 50, 1,2,5-trimethyl-N-[(5-phenyl-1,3,4-thiadiazol-2-yl)methyl]pyrrole-3-carboxamide]"
10,6.93,"Cn1ccc(C(=O)NCc2nnc(-c3ccccc3)s2)c1 [Example 51, 1-methyl-N-[(5-phenyl-1,3,4-thiadiazol-2-yl)methyl]pyrrole-3-carboxamide]"
11,6.89,"CCn1ccc(C(=O)NCc2nnc(-c3ccccc3)s2)n1 [Example 52, 1-ethyl-N-[(5-phenyl-1,3,4-thiadiazol-2-yl)methyl]pyrazole-3-carboxamide]"
